This is an account of results in patent publication US8901155B2, “Method for treating a TRPV1-mediated disease” (Santen Pharmaceutical Co., Ltd., priority 2007, dated 2014).

In one test the target is T1, human TRPV1 (Homo sapiens, UniProt Q8NER1).
T1 construct: expressed in transfected cells; host or cells: CHO cells
The experiment in a line: Intracellular calcium influx in human TRPV1-expressing CHO cells. Type of test: cell-based. Particulars: final concentration 1 μM; relative to 1 μM capsaicin. The text has this: 3. Measurement of Intracellular Calcium Influx by Present Compound in Human TRPV1-Expressing Cells
It is known that TRPV1 is an ion channel receptor and by the activation of TRPV1, intracellular calcium ion influx occurs. According to the method of Phelps et al. (Eur. J. Pharmacol., 513: 57-66, 2005), the action of the present compound of activating human TRPV1 was studied using CHO cells transfected with a gene encoding human TRPV1.
CHO cells were suspended in DMEM and seeded in a culture plate at 3.5×10^4 cells/well. A test compound or a control compound was dissolved in DMSO to prepare a DMSO solution, and times concentrated test compound-containing liquid and control compound-containing liquid each of which was composed of HBSS and contained the thus prepared DMSO solution were prepared.
To the CHO cells, a calcium indicator was added, and the resulting mixture was incubated at 37° C. for 30 minutes, and then further incubated at 22° C. for 30 minutes to achieve equilibration. Subsequently, one-tenth volume of the test compound-containing liquid, control compound-containing liquid (final concentration: 1 μM), or HBSS solution was added thereto, and a change in the fluorescence intensity of the intracellular calcium concentration indicator was measured.
(Calcium influx(%))=((fluorescence intensity in the presence of test compound)−(background fluorescence intensity)/(fluorescence intensity in the presence of control compound)−(background fluorescence intensity))×100

The nature of test [1]: Rat model of indomethacin-induced gastric mucosal injury. The class given is in vivo. Particulars: indomethacin 30 mg/kg s.c., 6 hours. As for the experimental part: 7. Effect in Rat Model of Gastrointestinal Dysfunction
A model of indomethacin-induced gastric mucosal injury is a model of gastrointestinal dysfunction widely used in the evaluation of drug efficacy of a therapeutic agent for ulcer. According to the method of Hoshino et al. (Folia Pharmacologica Japonica, Vol. 97, p. 287, 1991), the effect of the present compound in a rat model of indomethacin-induced gastric mucosal injury was studied.
A test compound-containing liquid was prepared immediately before use by suspending a test compound in a 1% aqueous methyl cellulose solution which is a vehicle. […]
To a rat fasted for 24 hours, the test compound-containing liquid, control compound-containing liquid, or vehicle (pathological control group) was orally administered, and immediately thereafter, indomethacin (Wako Pure Chemical Industries, Ltd.) was subcutaneously administered at a dose of 30 mg/kg. […] The length of the longest diameter of the site of a lesion dyed in blue including an ecchymosis was measured macroscopically using calipers.
A mean value of the sum of the longest diameters of the sites of lesions was obtained for each animal and was defined as an ulcer index. Further, a ratio of inhibition of gastric mucosal injury was calculated from the following equation. […]

For another test, the target named is T2, vanilloid receptor (Rattus norvegicus, UniProt O35433).
T2 construct: Rat spinal cord was homogenized according to a common procedure; from tissue; host or cells: rat spinal cord membrane specimen
T2 sequence (O35433 whole entry): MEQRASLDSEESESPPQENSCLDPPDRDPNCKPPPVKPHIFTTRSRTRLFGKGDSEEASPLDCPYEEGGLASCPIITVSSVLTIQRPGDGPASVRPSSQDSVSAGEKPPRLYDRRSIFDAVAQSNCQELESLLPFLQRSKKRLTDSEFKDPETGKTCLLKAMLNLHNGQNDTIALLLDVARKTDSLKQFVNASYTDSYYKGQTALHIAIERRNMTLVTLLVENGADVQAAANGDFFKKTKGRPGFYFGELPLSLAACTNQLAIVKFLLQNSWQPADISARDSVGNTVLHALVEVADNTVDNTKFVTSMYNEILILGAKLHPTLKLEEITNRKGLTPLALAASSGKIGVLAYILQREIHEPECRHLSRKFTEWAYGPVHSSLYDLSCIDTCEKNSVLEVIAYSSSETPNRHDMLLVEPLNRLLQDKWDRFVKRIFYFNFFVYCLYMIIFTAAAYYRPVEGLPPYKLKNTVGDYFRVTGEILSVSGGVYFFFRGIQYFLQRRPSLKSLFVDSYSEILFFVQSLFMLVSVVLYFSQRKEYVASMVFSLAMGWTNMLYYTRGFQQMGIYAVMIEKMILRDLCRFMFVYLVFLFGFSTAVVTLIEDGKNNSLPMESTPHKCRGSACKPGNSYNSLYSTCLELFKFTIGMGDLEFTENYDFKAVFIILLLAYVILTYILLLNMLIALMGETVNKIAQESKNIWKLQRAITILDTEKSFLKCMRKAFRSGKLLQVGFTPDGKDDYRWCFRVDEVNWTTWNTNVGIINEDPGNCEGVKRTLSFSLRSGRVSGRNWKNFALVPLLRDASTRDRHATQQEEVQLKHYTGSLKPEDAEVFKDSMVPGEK
Put plainly: Binding activity in rat spinal cord membrane specimen (3H-RTX competition).

The next test concerns the target T3, TRPV1 (Rattus norvegicus, UniProt O35433).
T3 construct: A dorsal root ganglion isolated from the spinal cord of a rat was sectioned and enzymatically treated; endogenous in cells; host or cells: primary cultured rat dorsal root ganglion neurons
The experiment in a line: CGRP release in cultured rat dorsal root ganglion-derived neurons. Type of test: cell-based. An excerpt:
2. Effect of Present Compound on TRPV1 Agonist-Induced CGRP Release System Using Rat Dorsal Root Ganglion-Derived Neurons It is known that TRPV1 is expressed in dorsal root ganglion (DRG), and that by the activation of TRPV1, CGRP which is a neurotransmitter is released from a nerve terminal. According to the method of Ahluwalia et al., (European Journal of Neuroscience, Vol. 17, p. 2611, 2003), the CGRP releasing activity of the present compound in cultured neurons derived from rat DRG was studied. A test compound was weighed and dissolved in DMSO. The resulting solution was diluted with a medium, whereby a test compound-containing liquid was prepared. Each test compound-containing liquid was prepared such that 0.4% DMSO was contained therein as well. […] A dorsal root ganglion isolated from the spinal cord of a rat was sectioned and enzymatically treated with a collagenase/DNase I solution at 37° C. for 1 hour, and then with a trypsin/DNase I solution at 37° C. for 20 minutes. The released neurons were washed and collected, and then seeded in a poly-D-lysine/laminin-coated culture dish and cultured under conditions of 37° C. and 5% CO2 in a neuronal medium (NGF/NCS medium) supplemented with a nerve growth factor for 1 day. The medium was replaced with an NGF/NCS medium containing cytosine arabinoside, and the neurons were further cultured for 2 days. […]

T1 sequence (Q8NER1 whole entry): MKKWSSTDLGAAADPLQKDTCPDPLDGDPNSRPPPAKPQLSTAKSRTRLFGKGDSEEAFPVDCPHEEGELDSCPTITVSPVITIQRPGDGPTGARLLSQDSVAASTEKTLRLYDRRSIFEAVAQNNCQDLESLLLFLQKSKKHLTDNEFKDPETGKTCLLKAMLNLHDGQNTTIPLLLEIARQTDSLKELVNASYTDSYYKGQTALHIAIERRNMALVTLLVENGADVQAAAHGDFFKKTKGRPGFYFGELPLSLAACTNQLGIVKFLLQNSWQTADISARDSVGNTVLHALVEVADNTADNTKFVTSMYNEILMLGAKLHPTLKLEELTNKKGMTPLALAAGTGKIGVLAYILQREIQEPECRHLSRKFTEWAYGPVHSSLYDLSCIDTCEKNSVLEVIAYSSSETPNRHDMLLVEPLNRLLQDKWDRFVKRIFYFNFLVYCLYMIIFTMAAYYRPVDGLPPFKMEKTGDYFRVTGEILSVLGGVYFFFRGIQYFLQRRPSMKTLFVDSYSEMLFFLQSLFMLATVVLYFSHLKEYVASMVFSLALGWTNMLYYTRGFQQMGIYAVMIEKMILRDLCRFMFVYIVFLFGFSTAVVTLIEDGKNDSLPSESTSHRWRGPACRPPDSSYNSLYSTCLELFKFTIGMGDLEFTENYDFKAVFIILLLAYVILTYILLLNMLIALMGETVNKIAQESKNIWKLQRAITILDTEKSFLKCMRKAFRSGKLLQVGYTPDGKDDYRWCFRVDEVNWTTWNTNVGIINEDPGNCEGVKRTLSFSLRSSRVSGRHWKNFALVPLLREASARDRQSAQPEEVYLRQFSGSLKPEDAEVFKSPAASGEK
T3 sequence (O35433 whole entry): as the sequence (O35433 whole entry) above
Protocol for vanilloid receptor: Binding Activity of the Present Compound in Rat Spinal Cord Membrane Specimen
According to the method of Szallasi et al., the binding activity of the present compound to a vanilloid receptor contained in a rat spinal cord membrane specimen was studied.
A test compound-containing liquid and a competitive compound-containing liquid containing a test compound and a competitive compound, respectively, and each composed of purified water containing 1% DMSO were prepared. As the competitive compound, tritium-labeled resiniferatoxin (^3H-RTX) was used, and the concentration of ^3H-RTX in the competitive compound-containing liquid was set to 0.2 nM.
Rat spinal cord was homogenized according to a common procedure, and the resulting homogenate was washed several times, followed by centrifugation. The resulting pellet was suspended in an incubation buffer (10 mM HEPES, pH 7.4, 0.25 mg/ml ESA, 0.75 mM CaCl2, 5 mM KCl, 2 mM MgCl2, 5.8 mM NaCl, 137 mM sucrose) at 10 mg/mL, whereby a membrane specimen was prepared.
After 5.25 μL of the test compound-containing liquid and 500 μL of the membrane specimen were mixed, 20 μL of the competitive compound-containing liquid was added thereto, and the entire resulting mixture was incubated at 37° C. for 60 minutes. The resulting membrane/^3H-RTX complex was collected by filtration, followed by washing. Then, the radioactivity was measured with a scintillation counter.
The above-mentioned assay was performed using the test compound-containing liquids containing a test compound at various concentrations and the results were analyzed as follows.
The inhibition ratio (%) of the test compound at each concentration was obtained from the following equation. (Inhibition ratio(%))={1−[(binding activity in the presence of test compound (cpm))−(radioactivity of non-specific binding (cpm))]/[(radioactivity of total binding (cpm))−(radioactivity of non-specific binding (cpm))]×100 […]

Take `CCCCCN(CCC12CC3CC(CC(C3)C1)C2)C(=O)NC/C=C/c1ccncc1` [Compound 7, (E)-1-[2-(1-adamantyl)ethyl]-1-pentyl-3-[3-(4-pyridyl)-2-propenyl]urea]: the “Calcium influx (%)” value on human TRPV1 came out at 36.1%.
On to `O=C(NCCCc1ccncc1)N(CCC(F)(F)F)CCC12CC3CC(CC(C3)C1)C2` [Compound 2, 1-[2-(1-adamantyl)ethyl]-3-[3-(4-pyridyl)propyl]-1-(3,3,3-trifluoropropyl)urea], for which the “Calcium influx (%)” value at human TRPV1 is given as 74.1%.
On to `CCCN(CCCC12CC3CC(CC(C3)C1)C2)C(=O)NCCCc1ccncc1` [Compound 3, 1-[3-(1-adamantyl)propyl]-1-propyl-3-[3-(4-pyridyl)propyl]urea], for which the “Calcium influx (%)” value at human TRPV1 is recorded as 59.8%.
On to `CCCCCN(CCC12CC3CC(CC(C3)C1)C2)C(=O)NCCCc1ccncc1` [Compound 1, 1-[2-(1-adamantyl)ethyl]-1-pentyl-3-[3-(4-pyridyl)propyl]urea], for which, in test [1] (1 mg/kg oral), the “inhibition ratio (%) of gastric mucosal injury” value was 67.41%. For the same compound, at vanilloid receptor (0.2 nM 3H-RTX liquid, 37° C. 60 minutes, mean±SEM of assays performed in triplicate, read-out: IC50 value to the vanilloid receptor in the rat spinal cord neuronal membrane specimen), the IC50 was 0.191 ± 0.028 µM. The Ki on vanilloid receptor (from IC50, dissociation constant 0.046 nM, mean±SEM, read-out: Ki value to the vanilloid receptor in the rat spinal cord neuronal membrane specimen) was 0.0358 ± 0.0052 µM. For the same compound, the Hill coefficient at vanilloid receptor (nonlinear regression of inhibition curve) is listed as 1.83±0.449. Moreover, the “CGRP release in competitive inhibition assay with capsazepine” value on TRPV1 (10 μM (final concentration) capsazepine, FIG. 3) is listed as “antagonized by capsazepine”. At TRPV1 (absence of capsazepine, 10 minutes culture, FIG. 2), the CGRP release result is on record as “released CGRP in a dose-dependent manner”.
With `CCCCCN(CCC12CC3CC(CC(C3)C1)C2)C(=O)NCC(C)Cc1ccncc1` (single isomer, unassigned; (+)) [Compound 6, (+)-1-[2-(1-adamantyl)ethyl]-3-[2-methyl-3-(4-pyridyl)propyl]-1-pentylurea], at human TRPV1, the “Calcium influx (%)” value was 76.6%.
With `CCCCCN(CCC12CC3CC(CC(C3)C1)C2)C(=O)NC(C)CCc1ccncc1` (stereo not shown) [Compound 4, 1-[2-(1-adamantyl)ethyl]-3-[1-methyl-3-(4-pyridyl)propyl]-1-pentylurea], the “Calcium influx (%)” value on human TRPV1 is 43.9%.
For `CCCCCN(CCC12CC3CC(CC(C3)C1)C2)C(=O)NCC(C)Cc1ccncc1` (stereo not shown) [Compound 5, 1-[2-(1-adamantyl)ethyl]-3-[2-methyl-3-(4-pyridyl)propyl]-1-pentylurea], the “Calcium influx (%)” value at human TRPV1 worked out at 64.3%.
Consider `COc1ccc2[nH]c([S+]([O-])Cc3ncc(C)c(OC)c3C)nc2c1` (stereo not shown) [Omeprazole, omeprazole, reference compound], for which the “inhibition ratio (%) of gastric mucosal injury” value in test [1] (10 mg/kg oral) turned out to be 69.22%.

By IC50 is commonly meant the midpoint of a concentration-inhibition curve. As a reminder, the Ki is the equilibrium dissociation constant of an inhibitor or competing ligand from its target. Broadly, the Hill coefficient is the slope factor of the fitted curve.
